Assay results taken from US11510913B1, “Modulating expression level of a gene encoding an apurinic/apyrimidinic endodeoxyribonuclease protein by treating a human subject with a nitroxide” (priority 2021, dated 2022).

Tests used:
APEX1 [1] = assay: Treating human subjects with Tempol, serum level of APEX1 following treatment; format: in vivo; details: 2000 mg per day for 180 days
Method: (§1) A 70-kilogram human subject over the age of 65 is identified as having, or known to have, or suspected of having an increased expression level of APEX1. The human subject is administered a dose of 2000 mg of Tempol (or another nitroxide antioxidant) per day for 180 days. This may be administered in a single dose, or may be administered as a number of smaller doses over a 24-hour period: for example, four 500-mg doses at […]. Following treatment, the serum level of APEX1, is decreased.
as §1, with “subject” for “subject over the age of 65”
as §1, with “65 and having a cardiovascular disease” for “65”, “for an increased expression level of APEX1. Or a 70-kilogram human subject over the age of 65 is” for “as having, or”, “have a cardiovascular disease and/or” for “have, or suspected of having an”
as §1, with “at risk” for “over the age”, “developing colorectal cancer” for “65”, “for increased expression level of APEX1. Or a 70-kilogram human subject is” for “as having, or”, “be at risk” for “have, or suspected”, “developing colorectal cancer and/or have” for “having an”
(§2) A 70-kilogram human subject at risk of developing an autoimmune disease (e.g., rheumatoid arthritis) is identified for increased expression level of APEX1. Or a 70-kilogram human subject is known to be at risk of developing an autoimmune disease and/or have increased expression level of APEX1. The human subject is administered a dose of 2000 mg of Tempol (or another nitroxide antioxidant) per day for 180 days. This may be administered in a single dose, or may be administered as a number of smaller doses over a 24-hour period: for example, four 500-mg doses at […]. Following treatment, the serum level of APEX1, is decreased.
as §1, with “The” for “A 70-kilogram human subject over the age of 65 is identified as having, or known to have, or suspected of having an increased expression level of APEX1. The”
as §2, with “a neurodegenerative” for “an autoimmune”, “Parkinson's Disease)” for “rheumatoid arthritis)”, “decreased. […]” for “decreased.”

APEX1 [2] = assay: Effects of Tempol on gene expression in cardiac tissue of mice, chip-based microarray; format: in vivo
Method: To assess the effects of Tempol on gene expression, Tempol was administered to experimental mice at a dose of 5 mg/g of food from 14 months to 31 months after birth. Mice receiving the same food without the addition of Tempol were used as a negative control. At the age of 31 months, the experimental animals were sacrificed and the hearts were surgically removed. The expression of a broad spectrum of genes in the cardiac tissue was assessed using chip-based microarray technology. Such chips are well known in the art and are widely used to assess gene expression.

Compound: CC1(C)CC(O)CC(C)(C)N1[O] [Tempol, 4-hydroxy-2,2,6,6-tetramethylpiperidine-1-oxyl]
- serum level of APEX1 (APEX1 [1]; Example 2: 70-kilogram human subject over the age of 65 with increased expression level of APEX1): decreased
- serum level of APEX1 (APEX1 [1]; Example 3: 70-kilogram human subject with increased expression level of APEX1): decreased
- serum level of APEX1 (APEX1 [1]; Example 4: human subject over the age of 65 having a cardiovascular disease): decreased
- serum level of APEX1 (APEX1 [1]; Example 5: human subject at risk of developing colorectal cancer): decreased
- serum level of APEX1 (APEX1 [1]; Example 6: human subject at risk of developing an autoimmune disease (e.g., rheumatoid arthritis)): decreased
- serum level of APEX1 (APEX1 [1]; Example 7: human subject at risk of developing a condition due to aging): decreased
- serum level of APEX1 (APEX1 [1]; Example 8: human subject at risk of developing a neurodegenerative disease (e.g., Parkinson's Disease)): decreased
- serum level of APEX1 (APEX1 [1]; Example 9: human subject having an infection (e.g., bacterial, fungal, or viral)): decreased
- Fold change (APEX1 expression) (APEX1 [2]; Tempol 5 mg/g of food from 14 months to 31 months after birth, cardiac tissue at 31 months, vs mice on same food without Tempol): −1.23
- expression of APEX1 in the cardiac tissue (APEX1 [2]; Tempol 5 mg/g of food from 14 to 31 months after birth, microarray): statistically significant decrease in expression
